# Patent US20050170041A1, “Chewing gum compositions comprising monatin and methods for making same” (Cargill, Inc., priority 2003, published 2005)
# Columns and labels:
# [1] = Sensory evaluation of sweeteners in iced tea; format: in vivo; details: 200 ml serving, aspartame 450 ppm, monatin 40 ppm, panel n=6
# Description: Monatin formulations, including R,R monatin or R,R monatin/erythritol combinations, were assessed relative to other known sweeteners (aspartame and sucralose) in iced tea. The key sensory parameters assessed included sweetness quality, aftertaste, bitter taste and its aftertaste. Qualitative evaluation has been carried out.
# An ice tea formulation was developed to evaluate sweetener performance (Table 7).
# Sweeteners were added to tea at the following concentrations:
# The evaluation of ice tea drinks was carried out by a panel (n=6) of experienced sensory evaluators.
# [2] = Sensory evaluation of chewing gums (quality and time-intensity of sweetness); format: in vivo; details: in chewing gum, versus aspartame or sucralose
# Description: Chewing gums sweetened individually with monatin, aspartame and sucralose were prepared in stick gum format of mint flavor. The gums were prepared to be iso-sweet and evaluated for quality of sweet taste and time-intensity of sweetness delivery.
# A standard method of manufacture was adopted for all three gum formulations, as described.
# The method of gum manufacture was as follows: • Pre-warm the gum base to 40-45° C. and then add to Z-blade mixer and mix • Sieve sorbitol powder • Remove a portion of the sorbitol, disperse sweetener in that portion and mix thoroughly • Return sweetener/sorbitol mix to remaining bulk of sorbitol powder and mix thoroughly • Mix lycasin and glycerol into a bowl and pre-heat to 50° C. • Add sorbitol powder to the Z-blade mixer containing the gum base • Add lycasin/glycerol and flavor to the Z-blade and mix for 20 minutes • Remove gum from Z-blade mixer • Roll to a thickness of 1.5 mm using a mechanical roller • Dust with talc in the ratio 3 g talc to 100 g gum • Cut into sticks measuring 19 mm×73 mm • Wrap individual sticks in foil Sensory Evaluation
# Chewing gum compositions were evaluated by a panel of trained sensory assessors (n 4), all very experienced in the formal sensory evaluation of chewing gums, including an evaluation for time/intensity parameters. Qualitative and temporal characteristics of the gum's flavor and sweetness were evaluated.
# [3] = Stability of monatin at pH 3 with increasing temperatures; format: physicochemical; details: synthetic monatin
# Description: A sample of synthetic monatin was subjected to pH 3 at temperatures of 25° C., 50° C. and 100° C. At room temperature and pH 3, a 14% loss in monatin was observed over a period of 48 hours. This loss was attributed to lactone formation. At 50° C. and pH 3, a 23% loss in monatin was observed over a period of 48 hours. This loss was attributed to lactone formation and the buildup of an unknown compound after about 15.5 minutes. […] The major detectable component was an unknown at 15.5 minutes.
# [4] = Stability of monatin at high temperature (80° C.) and neutral pH, LC-MS; format: physicochemical; details: pH 7, 75 ppm, after 7-35 days, synthetic ~96% 2R,4R/2S,4S
# Description: A 100 milliliter solution of 75 ppm monatin at pH 7 was used as a stock solution. The synthetic monatin sample contained approximately 96% of the 2R,4R/2S,4S enantiomeric pair and 4% of the 2R,4S/2S,4R enantiomeric pair. Samples were incubated at 80° C. and pH 7 for the duration of the experiment and samples were withdrawn at 0, 1, 2, 3, 4 hours and 1, 2, 4, 7, 14, 21 and 35 days. All experimental conditions were run in duplicate.
# A response curve was established for both detected diastereomer peaks of the synthetic monatin. A range of 5-150 ppm was bracketed with the synthetic monatin standard dissolved in DI water. Separation of the two diastereomer peaks was accomplished using a 3.9×150 mm Novapak C18 (Waters Corporation) HPLC column. Ultraviolet-Visible (UV) and Mass Spectrometer (MS) detectors were used in series for detection and quantitation. Monatin and its lactone peak each have a UVmax at 279 nm that aided in precise detection. Quantification was done by acquiring Selected Ion Monitoring (SIM) scan of 293.3 m/z and 275.3 m/z in positive-ion electrospray mode.
smiles,measurement,setting,value
"NC(CC(O)(Cc1c[nH]c2ccccc12)C(=O)O)C(=O)O (stereo not drawn) [Monatin, 2-hydroxy-2-(indol-3-ylmethyl)-4-aminoglutaric acid]",Comments: flavor enhancement (lemon flavor notes),[1],enhanced the lemon flavor notes
same,time/intensity profile for sweetness,[2],very clearly superior to either aspartame or sucralose
same,loss in monatin,"[3]; 50° C., pH 3, 48 hours",23%
same,loss in monatin,"[3]; 100° C., pH 3, after 24 hours",nearly all monatin was lost
same,loss in monatin,"[3]; room temperature (25° C.), pH 3, 48 hours",14%
same,degree of degradation,[4],insignificant
